Experimental data published in patent US10214583B2, “Sodium pump antibody agonists and methods of treating heart disease using the same” (priority 2011, dated 2019).
Entries after “also recorded” stand apart in the source; their conditions may differ.

Tests used:
[1] = test system: isolated rat cardiac myocytes; assay: Sodium Green fluorescence (intracellular Na+); type: cell-based
Protocol: The final concentration of Sodium Green in each sample tube was 10 μM during the incubation. The myocytes were then transferred to 96-well plates (Nunc) and the measurement of Sodium Green fluorescence was carried out by excitation at 485 nm and quantifying emission at 535 nm using a VICTOR-II multilabel counter (PerkinElmer Life Sciences).

isolated rat myocytes = assay: Nifedipine and KB-R7943 sensitive 45Ca influx; type: cell-based
Protocol: The reaction was stopped by adding 5 mM EGTA on ice and cells were washed and spun at 4000 rpm for 2 min (×3) to remove extracellular ^45Ca. Net intracellular counts per minute (cpm) of ^45Ca for each sample was determined by using a β-scintillation counter and the concentration of ^45Ca was calculated as described previously (20).

[2] = test system: Spontaneously Hypertensive Heart Failure (SHHF) rats; assay: Immunization of late-stage SHHF rats, heart function by echo; type: in vivo; settings: 14 months old SHHF rats, control rat died
Protocol: Studies were also conducted on the ability of NKA alpha subunit peptides to induce a therapeutic immune response in late-stage Spontaneously Hypertensive Heart Failure (SHHF) rats. The SHHF rats used for this study were 14 months old with late-stage heart failure. The heart function was measured by echo and expressed as percent of fractional shortening (FS %). The initial heart functions were 26.0% and 28.0% for control SHHF rat and the one with immunization, respectively. […] The peptide with which the rats were immunized has the following amino acid sequence […] (SEQ ID NO:7), as disclosed in U.S. Pat. No. 7,754,210.

NKA β1 subunit = assay: Specificity analysis by Western blotting; type: binding, pig, dog, rat; settings: PB2948
Protocol: Samples of purified rat and dog NKA, along with SDS-stripped pig α1 and β1 subunits (30 μg each) were mixed with electrophoresis sample buffer separately, boiled for 5 min, and loaded on freshly made 7.5% SDS-PAGE gel. Following electrophoresis, the samples were transferred from the SDS gel to a nitrocellulose membrane (0.45 μm). […] The membranes were then washed and incubated with secondary antibody (1:7500) for 1 hour. The color was then developed for visual analysis.

[3] = test system: isolated rat cardiac myocytes; assay: Rat myocyte contractility (cell shortening); type: cell-based; settings: 0.1 mM PB2948 + 0.5 μM JY2948
Description: Rat ventricular myocytes were isolated as described (18). The contraction amplitude was indexed by the percentage shortening of cell length (19).

For `N=C(N)SCCc1ccc(OCc2ccc([N+](=O)[O-])cc2)cc1` [KB-R7943], the “Sodium Green fluorescence intensity” value ([1]; 5 μM KB-R7943 alone, control 100) was 99±10%, the “Sodium Green fluorescence intensity” value ([1]; 30 μM KB-R7943 alone, control 100) was 102±7.0% and the “effect on JY2948-induced 45Ca influx” value (isolated rat myocytes; KB-R7943 (5 μM)) was “failed to inhibit”. For the same molecule, the “changes of 45Ca concentration compared with control cell background” value (isolated rat myocytes; KB-R7943 alone (504 [sic])) was “No significant changes”.
`C[C@@H]1O[C@@H](O[C@H]2C[C@@H](O)[C@]3(CO)[C@H]4[C@H](O)C[C@]5(C)[C@@H](C6=CC(=O)OC6)CC[C@]5(O)[C@@H]4CC[C@]3(O)C2)[C@H](O)[C@H](O)[C@H]1O` [ouabain] was tested, and the “Sodium Green fluorescence intensity” value ([1]; ouabain (2.5 mM)) was 136±13%, the “Sodium Green fluorescence intensity” value ([1]; ouabain + 5 μM KB-R7943) was 153±19% and the “Sodium Green fluorescence intensity” value ([1]; ouabain + 30 μM KB-R7943) was 151±23%. The “ouabain-induced 45Ca influx relative to JY2948/β1 subunit-induced influx” value (isolated rat myocytes) was 4.4 fold, the “share of ouabain-induced 45Ca influx through LTCC” value (isolated rat myocytes) was “approximately 40%” and the “share of ouabain-induced 45Ca influx through NCX” value (isolated rat myocytes) was roughly 60%. For the same molecule, the 45Ca influx (isolated rat myocytes; ouabain 2.5 mM alone) was 330±6.4 pCi, the “nifedipine-resistant 45Ca influx” value (isolated rat myocytes; ouabain + 10 μM nifedipine) was 188±78 pCi and the “ouabain-induced 45Ca influx” value (isolated rat myocytes; ouabain + both nifedipine and KB-R7943) was “completely impeded; also recorded: completely abolished”.
For “DVEDSYGQQWTYEQR (chemically-synthesized antigen) [SEQ ID NO:7, NKA alpha subunit peptide used to immunize SHHF rats, disclosed in U.S. Pat. No. 7,754,210]”, the “late-stage SHHF rat cardiac function (fractional shortening, FS %)” value [2] was “significantly improved”.
In the case of “KERGEFNHERGER (listed as Rattus norvegicus) [PB2948]”, the “interaction between JY2948 and native β1 subunit in presence of peptide blocker” value (NKA β1 subunit) is reported as “completely abolished” and the “JY2948-induced positive inotropic effect in the presence of peptide blocker” value [3] is reported as “completely eliminated”.
